# Entries after “also recorded” stand apart in the source; their conditions may differ. Non-standard residues stand in square brackets, D forms with d. Residues, ends and D or L forms follow the SMILES beside them. *: point of attachment. Sta = CC(C)C[C@H](N)[C@@H](O)CC(=O)O; Isovaleryl = CC(C)CC(=O)*; 4Abz = Nc1ccc(C(=O)O)cc1; NHOH = ON*
# B1: full length cystatin C: recombinant cystatin C, inhibitor of cysteine proteases including cathepsin B (protein)
# chain: SSPGKPPRLVGGPMDASVEEEGVRRALDFAVGEYNKASNDMYHSRALQVVRARKQIVAGVNYFLDVELGRTTCTKTQPNLDNCPFHDQPHLKRKAFCSFQIYAVPWQGTMTLSKSTCQDA
# B2: MMP-2: matrix metalloprotease that cleaved cystatin C at three sites (protein)
# chain: YNFFPRKPKWDKNQITYRIIGYTPDLDPETVDDAFARAFQVWSDVTPLRFSRIHDGEADIMINFGRWEHGDGYPFDGKDGLLAHAFAPGTGVGGDSHFDDDELWTLGEGQVVRVKYGNADGEYCKFPFLFNGKEYNSCTDTGRSDGFLWCSTTYNFEKDGKYGFCPHEALFTMGGNAEGQPCKFPFRFQGTSYDSCTTEGRTDGYRWCGTTEDYDRDKKYGFCPETAMSTVGGNSEGAPCVFPFTFLGNKYESCTSAGRSDGKMWCATTANYDDDRKWGFCPDQGYSLFLVAAHEFGHAMGLEHSQDPGALMAPIYTYTKNFRLSQDDIKGIQELYGASPDIDLGTGPTPTLGPVTPEICKQDIVFDGIAQIRGEIFFFKDRFIWRTVTPRDKPMGPLLVATFWPELPEKIDAVYEAPQEEKAVFFAGNEYWIYSASTLERGYPKPLTSLGLPPDVQRVDAAFNWSKNKKTYIFAGDKFWRYNEVKKKMDPGFPKLIADAWNAIPDNLDAVVDLQGGGHSYFFKGAYYLKLENQSLKSVKFGSIKSDWLGC
# What was measured:
# cystatin C = test: effect of protease inhibitors on cystatin C cleavage in CSF; assay type: biochemical, human; conditions: control CSF with only full length cystatin C, room temperature 48 hours; FN-439 and pepstatin A 500 ug/ml
# Description: We incubated control CSF which contained only the full length cystatin C at room temperature for 48 hours in the presence of various protease inhibitors and monitored it for the presence of the 12.5 kD fragment.
# [1] = tested on: rat mixed hippocampal cultures; test: in vitro neuroprotection assay against 3-NP, MTT viability; conditions: for protection from oxidative damage elicited by 3-NP: preincubated one hour prior to 18 hour exposure to 3 mM 3-NP
# Source text: 5, 2007. In Tables 5 and 6 “% Protection vs 3-NP” refers to the increase in cultured neuron viability in the presence of the oxidative stressor 3-nitropropionic acid. For details of the assay, see Example 3 below.
# (§1) We sought to evaluate the protective efficacy of a number of modified terpenoid compounds against the against many different neurotoxins, ranging from the chemotoxic 6-OHDA, NMDA, 3-nitropropionic acid (3-NP), and viral proteins such as Tat and gp120. Thus, we established an in vitro neuroprotection assay using rat mixed hippocampal cultures, in which we evaluated the protective efficacy of neuroprotective compounds disclosed herein. The oxidative stressor 3-NP was used to elicit toxicity in the rat hippocampal cultures to mimic the oxidative damage, reactive oxygen species production and ensuing neurodegeneration resulting from HIV infection. Another measure of neurotoxicity which results from HIV infection was evaluated by exposure of the hippocampal cultures to HIV-1 Tat (Li et al (2005), Neurotox Res, 8(1-2):119-134).
# (§2) Rat mixed hippocamal neuronal cultures were generated from freshly dissected rat hippocampi (embryonic day 18) in neurobasal media containing 5% fetal bovine serum and 2% B27 supplement. The cells were plated into 96 well plates at a density of 4×10^5 cells/mL and routinely used on days 11-14 following culturing. Cell viability was assessed with MTT [3-(4,5-dimethylthiazol-2-yl)-2,5-diphenyltetrazolium bromide] assay. The MTT assay is based on the ability of a mitochondrial dehydrogenase enzyme from viable cells to cleave the tetrazolium rings of the pale yellow MTT and form dark blue formazan crystals. See Mosmann (1983), J Immunol Methods, 65(1-2):55-63. These crystals are largely impermeable to cell membranes, and thus accumulate within healthy cells. The resultant formazan precipitates are solubilized with DMSO and read on a multiwell scanning spectrophotometer (ELISA reader). The number of surviving cells is directly proportional to the level of the formazan product created.
# Mixed hippocampal cultures were incubated with 3-NP (0.5-10 mM) for 18 hours and then assessed for viability using an MTT assay.
# (§3) Cultures were preincubated with GPI 1046 or Resveratrol for one hour prior to an 18 hour exposure to 3 mM 3-NP. […] The same neuroprotective compounds were evaluated for efficacy against HIV-1 Tat protein toxicity using the same 1 hour preincubation protocol.
# [2] = tested on: rat mixed hippocampal cultures; test: neuroprotection against HIV-1 Tat toxicity; assay type: cell-based; conditions: for protection from HIV-1 Tat toxicity: 1 hour preincubation
# Source text: as §1, §2, §3
# cathepsin B = biological target: T1, cathepsin B (Homo sapiens, UniProt P07858); test: cathepsin B functional assay; assay type: biochemical; conditions: for inhibition of cathepsin B activity: untreated recombinant protein, or protease alone; for ability to inhibit cathepsin B after treatment of cystatin C with MMP-2: recombinant cystatin C treated with MMP-2; for cathepsin B activity after treatment of cystatin C with cathepsin D: recombinant cystatin C treated with cathepsin D
# T1 construct: Cell lysates were prepared using a lysis buffer provided with the assay kit; host or cells: THP-1 cell lysate
# Description: The activity of cathepsin B, a substrate of cystatin C, was measured using an activity assay kit (Biovision Research Products, Mountain View, Calif.). This fluorescence-based assay utilizes the cathepsin-B substrate sequence Arg-Arg labeled with amino-4-trifluoromethyl coumarin […]. Cathepsin-B cleaves the synthetic substrate RR-AFC to release free AFC. THP-1 cells (a monocytic cell line) were used as a source of cathepsin B. Cell lysates were prepared using a lysis buffer provided with the assay kit. Cell lysates from 1×10^6 cells were added to 50 μl of CSF in a microtiter plate (q.s. 100 μl). Two μl of substrate Ac-Arg-Arg-AFC was added to each well and incubated for 1 hr at 37° C. Absorbance was measured using a fluorescent plate reader with a 400 nm excitation filter and 505 nm emission filter. Controls included reaction buffer alone and a cathepsin B inhibitor provided in the kit. All samples were analyzed in duplicate.
# Recombinant cystatin C was produced and the ability of MMP-2 and cathepsin D to cleave the recombinant protein was confirmed. As expected, cathepsin D cleaved cystatin C at four different sites, and yielded a 12.5 kD fragment following cleavage from the C terminal region (9). In contrast, MMP-2 cleaved cystatin C at three unique sites (GK, FC, and GT which correspond to amino acids 4,5; 96,97 and 108,109). Recombinant cystatin C was treated with either MMP-2 or cathepsin D and its activity monitored by a cathepsin B functional assay using a kit from Biovision Research Products, Mountain View, Calif. The assay was performed as previously described (4). […] Cathepsin D and MMP-2 alone had no effect on cathepsin B activity (FIG. 9). These observations confirmed that C terminal fragmentation of cystatin C leads to a gain in activity while cleavage in other regions including the N terminal region leads to a loss or decrease of activity of cystatin C.
# rat neuronal cultures [3] = test: protection against NMDA excitotoxicity; assay type: cell-based
# Source text: as §1
# (§4) Rat mixed hippocamal neuronal cultures were generated from freshly dissected rat hippocampi (embryonic day 18) in neurobasal media containing 5% fetal bovine serum and 2% B27 supplement. The cells were plated into 96 well plates at a density of 4×10^5 cells/mL and routinely used on days 11-14 following culturing. Cell viability was assessed with MTT [3-(4,5-dimethylthiazol-2-yl)-2,5-diphenyltetrazolium bromide] assay. […] The resultant formazan precipitates are solubilized with DMSO and read on a multiwell scanning spectrophotometer (ELISA reader). […]
# [4] = tested on: human fetal neuronal cultures; test: protection of human fetal neurons against 6-OHDA; assay type: cell-based
# Source text: (§5) Finally, we sought to determine if the compounds tested in rat neuronal cultures would also be effective on cultured human fetal neurons.
# [5] = tested on: human fetal neuronal cultures; test: protection of human fetal neurons against 3-NP; assay type: cell-based
# Source text: as §5
# rat neuronal cultures [6] = test: protection against 6-OHDA neurotoxicity; assay type: cell-based
# Source text: as §1, §4
# [7] = listed as Recombinant cystatin C
molecule,measurement,setting,value
CC(C)CC(=O)N[C@H](C(=O)N[C@H](C(=O)N[C@@H](CC(C)C)[C@@H](O)CC(=O)N[C@@H](C)C(=O)N[C@@H](CC(C)C)[C@@H](O)CC(=O)O)C(C)C)C(C)C [pepstatin A] (Isovaleryl-VV[Sta]A[Sta]-OH),effect on cleavage of cystatin C (12.5 kD fragment),cystatin C,showed inhibition of the breakdown of cystatin C; also recorded: significantly prevented cleavage of cystatin C
C[C@@H]1[C@H](O)[C@@H](C)/C=C/C=C/CC/C=C/C=C/C=C/C=C/C(O[C@H]2O[C@H](C)[C@@H](O)[C@H](N)[C@@H]2O)CC2O[C@](O)(CC(O)C(O)CCC(O)CC(O)CC(O)CC(=O)O[C@H]1C)CC(O)C2C(=O)O (stereo partly drawn) [NYSTATIN],% Protection vs 3NP,[1]; increase in cultured neuron viability in the presence of 3-nitropropionic acid (Table 6),46.72%
CC(=O)O[C@@H]1CC2C(C)(C)C(=O)C=C[C@]2(C)C2CC[C@]3(C)[C@@H](c4ccoc4)OC(=O)[C@H]4O[C@]43[C@@]21C (stereo partly drawn) [GEDUNIN],neuroprotection from HIV-1 Tat toxicity at 1-10 μM,[2]; 1-10 μM,nearly complete neuroprotection
same,protection from HIV-1 Tat toxicity,[2],dose dependently protected
CC(C)C[C@@H](NC(=O)[C@@H]1CCCN1C(=O)CNC(=O)c1ccc(N)cc1)C(=O)N[C@H](C)C(=O)NO [FN-439] (H-[4Abz]GP[dL][dA]-{NHOH}),effect on cleavage of cystatin C (12.5 kD fragment),cystatin C,showed inhibition of the breakdown of cystatin C
"Oc1ccc(C=Cc2cc(O)cc(O)c2)cc1 [RESVERATROL, reference compound]",protection from oxidative damage elicited by 3-NP,[1],significantly protected
same,protection from HIV-1 Tat toxicity,[2],protected hippocampal neurons from Tat toxicity
Cathepsin D: protease that cleaves cystatin C from the C terminal region,inhibition of cathepsin B activity,cathepsin B,no effect
"CCC(C)(C)C(=O)C(=O)N1CCC[C@H]1C(=O)OCCCc1cccnc1 [GPI 1046, reference compound]",protection from oxidative damage elicited by 3-NP,[1],significantly protected
same,protection from HIV-1 Tat toxicity,[2],protected hippocampal neurons from Tat toxicity
"O=C(O)CC[N+](=O)[O-] [Compound 3-NP, 3-nitropropionic acid]",cytotoxicity,"[1]; 3 mM 3-NP, 18 hours, MTT assay",25-35%
CC1(C)O[C@H]2CC(=O)OC[C@]23[C@H]2CC[C@@]4(C)[C@H](c5ccoc5)OC(=O)[C@H]5O[C@]54[C@]2(C)C(=O)C[C@@H]13 [Limonin],protection against NMDA at highest dose,"rat neuronal cultures [3]; 10 μM, highest dose tested",complete protection
same,block of NMDA neurotoxicity,rat neuronal cultures [3]; dose-dependent,dose-dependently blocked
same,protection against 6-OHDA,[4],dose-dependently protected
same,protection against 3-NP,[5],dose-dependently protected
same,protection from HIV-1 Tat toxicity,[2],dose dependently protected
same,protection against 6-OHDA at highest dose,"rat neuronal cultures [6]; 10 μM, highest dose tested",complete protection
same,block of 6-OHDA neurotoxicity,rat neuronal cultures [6]; dose-dependent,dose-dependently blocked
B1,ability to inhibit cathepsin B after treatment of cystatin C with MMP-2,cathepsin B; [7],inhibition of CysC activity
same,ability to inhibit cathepsin B after treatment of cystatin C with MMP-2,cathepsin B; listed as cystatin C,decrease in its ability to inhibit cathepsin B activity
same,cathepsin B activity after treatment of cystatin C with cathepsin D,cathepsin B; [7],further enhanced
same,cathepsin B activity after treatment of cystatin C with cathepsin D,cathepsin B; listed as cystatin C,further decrease in cathepsin B activity
same,inhibition of cathepsin B activity,cathepsin B,significant inhibition
B2,inhibition of cathepsin B activity,cathepsin B,no effect

# From patent US8114619B2, “Methods for diagnosis and optimizing treatment of multiple sclerosis” (The Johns Hopkins University, priority 2006, dated 2012)
